Laboratory results reported in patent US20130150430A1, “Methods for Impairing the P53/HDM2 Auto-Regulatory Loop in Multiple Myeloma Development Using mIR-192, mIR-194 and mIR-215” (THE OHIO STATE UNIVERSITY, priority 2011, published 2013).

How the values were obtained:
Format in all cases: cell-based, human
MM1s cells = test: Caspase-3 activation assay with MI-219 in miRNA-transfected cells; details: MI-219 in presence of the miRNA; p<0.001
Method: FIG. 5C: Apoptotic effect at different concentrations and time points for each miRNA transfected cells was assessed by caspase-3 activation assay.
(§1) Nocodazole was (Sigma-Aldrich) was dissolved in DMSO as a stock solution of 10 mg/ml for cell cycle arrest in G2/M phase. Cells were first arrested and synchronized in G2/M phase by growth in 80 nM nocodazole for 16 hr. Cells were then washed and fresh medium added. After 6 hr, cell cycle analysis was performed by propidium iodide staining. Corresponding amounts of DMSO alone were added in control experiments. In experiments involving transfection and MI-219 treatment, the cells were first transfected, incubated for 24 hr, and then treated with the chemotherapeutic drug for 24 hr. For DNA content analysis, cells were fixed in methanol at −20° C., washed again, rehydrated, re-suspended in PBS containing 50 μg/ml propidium iodide (PI) and 50 μg/ml RNase A, and analyzed by flow cytometry (Becton Dickinson). For detection of caspase 3 activity, KMS28BM and MM1s cells were cultured in 96-well plates and treated with Nutlin-3a. After the treatment the cells were analyzed using Caspase-Glo 3 Assay kit (Promega) according to the manufacturer's instructions. Continuous variables were expressed as mean values ± standard deviation (s.d.).

[1] = tested on: MDM2 mRNA in MM1s and NCI-H929 cells; test: RT-PCR of MDM2 mRNA after miRNA transfection and Nutlin-3a; details: transfected cells at 6 and 12 hr of Nutlin-3a treatment, both cell lines
Method: FIG. 4F: MDM2 mRNA expression normalized for GAPDH mRNA expression in MM1s and NCIH929 cells miRNAs or Scr transfected after Nutlin-3a treatment (6-12 hr).
RNA was isolated from cell lines using Trizol reagent (Invitrogen) as per the manufacturer's protocol. An aliquot of 5 μg RNA was then used for cDNA synthesis using the SuperScript first strand cDNA synthesis kit (Invitrogen). RT-PCRs were carried out using ABI Prism 7900HT sequence detection systems with Applied Biosystems TaqMan Gene expression assays (p21 (CDKN1A):Hs01121172_ml; MYC:Hs99999003_ml; TP53:Hs00153349_ml; MDM2: Hs01066938_ml).

MM1s and NCI-H929 cells = test: Cell cycle analysis by flow cytometry; details: 48 hr of transfection after nocodazole synchronization; scrambled-transfected ~30%
Method: FIG. 3G, FIG. 3H, FIG. 31, FIG. 3J: Flow cytometry analysis in MM1s (FIG. 3G), NCI-H929 (FIG. 3H) and KMS28BM (FIG. 31) cells (miR-192, miR-194, miR-215 and Scr transfected) at 48 hr of transfection, after first being arrested and synchronized in G2/M phase by Nocodazole for 16 hr. Apoptosis in KMS28BM was evaluated by caspase-3 activity (FIG. 3J). All experiments were performed in triplicate ±SD.
as §1, with “In experiments involving transfection and MI-219 treatment, the cells were first transfected, incubated for 24 hr, and then treated with the chemotherapeutic drug for 24 hr.” left out, “For detection of caspase 3 activity, KMS28BM and MM1s cells were cultured in 96-well plates and treated with Nutlin-3a.” left out

[2] = tested on: p53, MDM2 and p21 in MM1s and NCI-H929 cells; test: Western blot of p53, MDM2, p21 after miRNA or ASO transfection and Nutlin-3a; details: 72 hr after transfection, 12 hr Nutlin-3a (10 μM); for expression of MDM2 protein: both cell lines; for level of p53 and p21: vs Scr-transfected cells, p<0.001
Method: FIG. 4A: MM1s and NCIH929 cells (pre-miRNA-192, pre-miRNA-194, pre-miRNA-215, Scr sequence-transfected) were harvested at 72 hr after transfection and 12 hr Nutlin-3a treatment (10 μM). Whole cell lysates were subjected to Western blotting using p53, MDM2, p21, and Gapdh antibodies. Densitometric analysis showing the effect of miR-194 (white bars), miR-192 (grey bars), miR-215 (black bars) compared to Scr sequence (green bars) transfected cells of endogenous p53, MDM2 and p21 in MM1s (FIG. 4B) and NCI-H929 (FIG. 4C) Nutlin-3a treated.
FIG. 4D: Immununoblot analysis showing p53, MDM2 and p21 protein expression after 48 hr of miR192, miR-194, miR-215 (pool) and Scr ASOs transfection in MM1s and NCI-H929 cells after 12 hr of treatment with 10 μM Nutlin-3a.
Samples were extracted in 15 mM Tris.Cl, pH 7.5/120 mM NaCl/25 mM KCl/2 mM EGTA/0.1 mM DTT/0.5% Triton X-100/[…] leupeptin/0.5 mM PMSF. Total protein (35 μg) from each sample was separated on a 4-20% Tris-HCl-Criterion precast gel Bio-Rad (cat#345-0032, Hercules, Calif.) and transferred to a poly(vinylidene difluoride) filter (Millipore). The filter was blocked in 5% nonfat dry milk, incubated with the specific antibody, washed, and probed with secondary antibody IgG conjugated to horseradish peroxidase (Santa Cruz Biotechnology), and developed with enhanced chemiluminescence (Amersham Pharmacia). Immunoblot analyses were performed using the following antibodies: p53 (sc-53394, Santa Cruz Biotechnology), MDM2 (sc-965, Santa Cruz Biotechnology), phospho-MDM2 (Cat#3521, Cell Signaling), c-MYC (cs-40, Santa Cruz Biotechnology), IGF-1 (sc-9013, Santa Cruz Biotechnology), IGF-1R (Cat#3027, Cell Signaling), total-Akt (Cat#9272, Cell signaling), phospho-Akt (Cat#4060, Cell Signaling), total-S6 (Cat#2217, Cell Signaling), phospho-S6 (Cat#2211, Cell Signaling), p21 (sc-817, Santa Cruz Biotechnology), α-PUMA (Cat#4976, Cell Signaling), GAPDH (Cat#2118, Cell Signaling). Filters were reprobed with enzyme-conjugated antibodies to GFP and β-actin (Santa Cruz Biotechnology).
MM cells (from MM subjects or from cell lines) non-transfected or transfected with pre- or ASOs miR-192, miR-215, miR-194 and Scr sequence as described above, were treated with MDM2 inhibitor (Nutlin3a and MI-219). Fresh CD138+ primary PCs isolated from new diagnosed MM subjects as previously described were maintained in culture for 24 hr and then treated for 24 hr with 10 μM Nutlin-3a (Cayman Chemical Company) or vehicle (DMSO). For transfected cells at 24 hrs after transfection MM cells were treated with 10 μM Nutlin-3a (Cayman Chemical Company) or DMSO vehicle only at different time points. […]

With “miR-192: microRNA, p53-activated, down-regulated in MM; transfected as miRNA precursor (Ambion) or lentivector; SEQ ID NO:56 (CUGACCUAUGAAUUGACAGCC; listed as RNA, chemistry not given here; listed as Homo sapiens)” the “caspase-3 activation induced by MI-219” value (MM1s cells) was “higher caspase-3 activation”, the “MDM2 mRNA levels” value [1] was “strongly reduced” and the “cells in G0/G1 arrest” value (MM1s and NCI-H929 cells) was roughly 60%. The “expression of MDM2 protein” value [2] was “dramatically decreased” and the “level of p53 and p21” value [2] was “significantly increased”.

“miR-215: microRNA, p53-activated, down-regulated in MM; transfected as miRNA precursor (Ambion) or lentivector; SEQ ID NO:58 (AUGACCUAUGAAUUGACAGAC; listed as RNA, chemistry not given here; listed as Homo sapiens)” was tested, and the “caspase-3 activation induced by MI-219” value (MM1s cells) was “higher caspase-3 activation”, the “MDM2 mRNA levels” value [1] was “strongly reduced” and the “cells in G0/G1 arrest” value (MM1s and NCI-H929 cells) was roughly 60%. The “expression of MDM2 protein” value [2] was “dramatically decreased” and the “level of p53 and p21” value [2] was “significantly increased”.
